Columns and labels:
[1] = test system: MCF7; assay: Anticancer activity against human MCF7 cells assessed as cell viability at 12.5 uM after 24 hrs by MTT assay; format: functional; conditions: MCF7, 24 h, read-out: Activity
[2] = test system: MCF7; assay: Anticancer activity against human MCF7 cells assessed as cell viability at 25 uM after 24 hrs by MTT assay; format: functional; conditions: MCF7, 24 h, read-out: Activity
[3] = test system: MCF7; assay: Anticancer activity against human MCF7 cells assessed as cell viability at 50 uM after 24 hrs by MTT assay; format: functional; conditions: MCF7, 24 h, read-out: Activity
[4] = test system: MCF7; assay: Anticancer activity against human MCF7 cells assessed as cell viability at 100 uM after 24 hrs by MTT assay; format: functional; conditions: MCF7, 24 h, read-out: Activity
[5] = test system: MCF7; assay: Anticancer activity against human MCF7 cells assessed as cell viability at 12.5 uM after 48 hrs by MTT assay; format: functional; conditions: MCF7, 48 h, read-out: Activity
[6] = test system: MCF7; assay: Anticancer activity against human MCF7 cells assessed as cell viability at 25 uM after 48 hrs by MTT assay; format: functional; conditions: MCF7, 48 h, read-out: Activity
[7] = test system: MCF7; assay: Anticancer activity against human MCF7 cells assessed as cell viability at 50 uM after 48 hrs by MTT assay; format: functional; conditions: MCF7, 48 h, read-out: Activity
[8] = test system: MCF7; assay: Anticancer activity against human MCF7 cells assessed as cell viability at 100 uM after 48 hrs by MTT assay; format: functional; conditions: MCF7, 48 h, read-out: Activity
[9] = test system: CCRF-CEM; assay: Anticancer activity against human CCRF-CEM cells assessed as cell viability at 12.5 uM after 24 hrs by MTT assay; format: functional; conditions: read-out: Activity
[10] = test system: CCRF-CEM; assay: Anticancer activity against human CCRF-CEM cells assessed as cell viability at 25 uM after 24 hrs by MTT assay; format: functional; conditions: read-out: Activity
[11] = test system: CCRF-CEM; assay: Anticancer activity against human CCRF-CEM cells assessed as cell viability at 50 uM after 24 hrs by MTT assay; format: functional; conditions: read-out: Activity
[12] = test system: CCRF-CEM; assay: Anticancer activity against human CCRF-CEM cells assessed as cell viability at 100 uM after 24 hrs by MTT assay; format: functional; conditions: read-out: Activity
[13] = test system: CCRF-CEM; assay: Anticancer activity against human CCRF-CEM cells assessed as cell viability at 12.5 uM after 48 hrs by MTT assay; format: functional; conditions: read-out: Activity
[14] = test system: CCRF-CEM; assay: Anticancer activity against human CCRF-CEM cells assessed as cell viability at 25 uM after 48 hrs by MTT assay; format: functional; conditions: read-out: Activity
[15] = test system: CCRF-CEM; assay: Anticancer activity against human CCRF-CEM cells assessed as cell viability at 50 uM after 48 hrs by MTT assay; format: functional; conditions: read-out: Activity
[16] = test system: CCRF-CEM; assay: Anticancer activity against human CCRF-CEM cells assessed as cell viability at 100 uM after 48 hrs by MTT assay; format: functional; conditions: read-out: Activity
[17] = target: Casein kinase II subunit alpha (Homo sapiens) (UniProt P68400); assay: Inhibition of human CK2alpha using RRRDDDSDDD peptide substrate at 20 uM by P81 filter-binding assay; parameters: scale not given: the % may be the effect or the level left
Sequence of Casein kinase II subunit alpha (Homo sapiens) (P68400 whole entry, looked up): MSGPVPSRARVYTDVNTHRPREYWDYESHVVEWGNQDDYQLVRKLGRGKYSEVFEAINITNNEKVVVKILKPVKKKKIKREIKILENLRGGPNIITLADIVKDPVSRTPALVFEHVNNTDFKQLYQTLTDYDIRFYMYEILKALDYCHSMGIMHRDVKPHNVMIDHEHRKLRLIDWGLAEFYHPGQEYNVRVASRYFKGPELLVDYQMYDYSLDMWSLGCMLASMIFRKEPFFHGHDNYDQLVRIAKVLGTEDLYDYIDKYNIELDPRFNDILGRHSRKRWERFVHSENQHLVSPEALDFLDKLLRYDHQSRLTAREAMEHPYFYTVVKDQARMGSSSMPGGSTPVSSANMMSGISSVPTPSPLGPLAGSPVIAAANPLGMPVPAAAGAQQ

[18] = target: Casein kinase II subunit alpha (Homo sapiens) (UniProt P68400); assay: Inhibition of human CK2alpha using RRRDDDSDDD peptide substrate at 200 uM by P81 filter-binding assay; parameters: scale not given: the % may be the effect or the level left

Row | SMILES | viability at 12.5 µM [1] [%] | viability at 25 µM [2] [%] | viability at 50 µM [3] [%] | viability at 100 µM [4] [%] | viability at 12.5 µM [5] [%] | viability at 25 µM [6] [%] | viability at 50 µM [7] [%] | viability at 100 µM [8] [%] | viability at 12.5 µM [9] [%] | viability at 25 µM [10] [%] | viability at 50 µM [11] [%] | viability at 100 µM [12] [%] | viability at 12.5 µM [13] [%] | viability at 25 µM [14] [%] | viability at 50 µM [15] [%] | viability at 100 µM [16] [%] | Activity [17] [%] | Activity [18] [%]
1 | CC(O)CCn1nc2c(Br)c(Br)c(Br)c(Br)c2n1 (racemic) | 99 | 102 | 90 | 57 | 79 | 73 | 76 | 0 | 106 | 113 | 89 | 3 | 94 | 86 | 45 | 0 |  | 
2 | OC(CCn1nc2c(Br)c(Br)c(Br)c(Br)c2n1)c1ccc(Cl)cc1 (stereo unspecified) | 90 | 96 | 19 | 0 | 100 | 92 | 9 | 0 | 105 | 106 | 56 | 0 | 93 | 69 | 0 | 0 | 95.6 | 45.4
3 | C[C@H](O)CCn1nc2c(Br)c(Br)c(Br)c(Br)c2n1 | 112 | 102 | 105 | 31 | 100 | 89 | 87 | 6 | 126 | 112 | 86 | 36 | 92 | 89 | 42 | 10 |  | 
4 | OC(CCn1nc2c(Br)c(Br)c(Br)c(Br)c2n1)c1ccc(Br)cc1 (stereo unspecified) | 82 | 59 | 10 | 0 | 107 | 105 | 15 | 0 | 101 | 109 | 58 | 0 | 89 | 69 | 0 | 0 | 97.4 | 33.5
5 | OC(CCn1nc2c(Br)c(Br)c(Br)c(Br)c2n1)c1cccc(Cl)c1 (stereo unspecified) | 97 | 96 | 28 | 0 | 107 | 101 | 12 | 0.5 | 110 | 118 | 71 | 0 | 70 | 68 | 0 | 0 | 74.9 | 23.8
6 | OC(CCn1nc2c(Br)c(Br)c(Br)c(Br)c2n1)c1cccc(Br)c1 (stereo unspecified) | 81 | 52 | 14 | 1 | 102 | 106 | 11 | 0 | 102 | 123 | 54 | 0 | 118 | 54 | 0 | 0 | 96.6 | 43.4
7 | Brc1c(Br)c(Br)c2[nH]nnc2c1Br [TETRABROMOBENZOTRIAZOLE] | 111 | 108 | 120 | 109 |  |  |  |  | 115 | 105 | 118 | 61 |  |  |  |  |  | 
8 | OCC(O)Cn1nc2c(Br)c(Br)c(Br)c(Br)c2n1 (racemic) | 145 | 156 | 98 | 53 | 116 | 111 | 109 | 8 | 78 | 89 | 47 | 8 | 60 | 56 | 27 | 1 |  | 
9 | C[C@H](O)Cn1nc2c(Br)c(Br)c(Br)c(Br)c2n1 | 119 | 67 | 58 | 25 | 101 | 64 | 10 | 8 | 104 | 104 | 72 | 9 | 105 | 92 | 58 | 0 |  | 
10 | CC(O)Cn1nc2c(Br)c(Br)c(Br)c(Br)c2n1 (racemic) | 118 | 96 | 60 | 15 | 99 | 83 | 16 | 6 | 125 | 102 | 108 | 9 | 83 | 78 | 53 | 0 |  | 
11 | C[C@@H](O)CCn1nc2c(Br)c(Br)c(Br)c(Br)c2n1 | 109 | 105 | 102 | 18 | 86 | 77 | 64 | 0 | 88 | 81 | 69 | 36 | 94 | 71 | 23 | 24 |  | 
